In patent US9566269B2, “Modified release compositions of epalrestat or a derivative thereof and methods for using the same” (Bionevia Pharmaceuticals Inc., priority 2011, dated 2017):

Assays:
[1] = cited from earlier work
[2] = Ionization study in different pH environments (calculated from pKa); assay type: physicochemical
Description: The percentage ionization of Epalrestat in different pH environments of the human gastrointestinal tract was calculated based on the pKa value (3.61).

[3] = cited from earlier work; remark: listed apart in the source
[4] = immediate release 50 mg dosage, healthy adult volunteers

% Ionized ([2]; pH 1.2): 0%
% Ionized ([2]; pH 3.0): 20.0%
% Ionized ([2]; pH 3.5): 44.0%
% Ionized ([2]; pH 4.0): 71.0%
% Ionized ([2]; pH 4.5): 89.0%
% Ionized ([2]; pH 5.0): 96.0%
% Ionized ([2]; pH 5.5): 99.0%
% Ionized ([2]; pH 6.0): 100.0%
% Ionized ([2]; pH 6.8): 100.0%
Compound: C/C(C=C1SC(=S)N(CC(=O)O)C1=O)=C\c1ccccc1 (single isomer, unassigned) [epalrestat, 5-[(1Z,2E)-2-methyl-3-phenylpropenylidene]-4-oxo-2-thioxo-3-thiazolidineacetic acid]
Plasma level ([1]; 4 hours after administration of 50 mg tablets of epalrestat free acid): 370 ng/mL
Cmax [1, 4]: 3900 ng/mL
t1/2 [1, 4]: 1.8 h
tmax [1, 4]: 1.05 h
total AUC0-∞ [1, 4]: 6400 ng·h/mL
pKa value [3]: 3.61
